From patent US20200278355A1, “CONJUGATED PROTEINS AND USES THEREOF” (THE SCRIPPS RESEARCH INSTITUTE, priority 2017, published 2020)

Biological target: T1, HA-NR0B1-C274V binding to FLAG-SNW1 (Homo sapiens, UniProt P51843, C274V)
T1 construct: expressed in transfected cells; host or cells: HEK293T (pRK5-based plasmids)
Experiment: Modified in vitro binding assay: HA-NR0B1-C274V from compound-treated HEK293T cells binding to FLAG-SNW1
Type: cell-based
Settings: HEK293T cells expressing HA-NR0B1-C274V treated with compound, lysate binding to FLAG-SNW1
Experimental: FIG. 5A-FIG. 5G show covalent ligand targeting C274 disrupts NR0B1 protein complexes. […] Percentage of NR0B1 bound to SNW1 was normalized to vehicle (DMSO). A hit compound BPK-26 is marked in red. […] HEK293T cells expressing the indicated proteins were treated with BPK-29 or vehicle (3 h) prior to treatment with BPK-29yne (30 min). Immunoprecipiated proteins were analyzed by in-gel fluorescence-scanning and immunoblotting. […] HEK293T cells expressing HA-NR0B1-WT or HA-NR0B1-C274V proteins were treated with DMSO or BPK-29, after which lysates were generated and evaluated for binding to FLAG-SNW1, as shown in (B).
FIG. 11A-FIG. 11F illustrate a covalent ligand targeting Cys274 disrupts NR0B1 protein complexes. […] See also FIG. 5C. […] Top: Structures of screening hit BPK-28 and synthesized derivatives. […] FLAG-immunoprecipitates were prepared from each lysate and subjected to proteolytic digestion, whereupon tryptic peptides harboring C274 were analyzed by LC-MS/MS. […] Immunoprecipitates were analyzed by in-gel fluorescence-scanning to assess BPK-29yne labeling or by immunoblot for FLAG-NR0B1. […] In a modified in vitro binding assay shown in FIG. 5B, HEK293T cells expressing HA-NR0B1-WT or an HA-NR0B1-C274V mutant were treated with DMSO or BPK-26 (20 μM, 3 h), after which lysates were and interaction with FLAG-SNW1 assessed. […]

T1 sequence (P51843 whole entry C274V): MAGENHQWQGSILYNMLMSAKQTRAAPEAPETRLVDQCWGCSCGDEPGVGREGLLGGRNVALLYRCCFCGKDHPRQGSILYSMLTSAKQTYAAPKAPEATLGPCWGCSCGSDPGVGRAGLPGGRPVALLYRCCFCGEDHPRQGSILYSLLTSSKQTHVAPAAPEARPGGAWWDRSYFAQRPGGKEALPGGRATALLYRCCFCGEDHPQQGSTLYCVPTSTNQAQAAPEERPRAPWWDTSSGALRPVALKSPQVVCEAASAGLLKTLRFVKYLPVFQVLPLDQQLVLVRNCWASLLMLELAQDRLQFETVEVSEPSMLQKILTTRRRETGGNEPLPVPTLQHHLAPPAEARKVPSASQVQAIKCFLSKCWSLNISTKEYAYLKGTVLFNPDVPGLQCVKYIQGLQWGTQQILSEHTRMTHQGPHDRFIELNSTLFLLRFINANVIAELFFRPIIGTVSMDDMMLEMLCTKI

Compound	sensitivity of the C274V-NR0B1 interaction with SNW1 to ligand
O=C(c1ccc(N2CCOCC2)cc1)N1CCCC(N(Cc2ccccc2)C(=O)CCl)CC1 (centres unmarked) [BPK-29, N-benzyl-2-chloro-N-(1-(4-morpholinobenzoyl)azepan-4-yl)acetamide]	not sensitive
O=C(CCl)N(Cc1cccc(Cl)c1F)c1ccc(Cl)nc1 [BPK-26, 2-chloro-N-(3-chloro-2-fluorobenzyl)-N-(6-chloropyridin-3-yl)acetamide]	not sensitive
